According to patent publication US20220196635A1, “Fibrosis Assay” (Georgia Tech Research Corporation, priority 2020, published 2022):

How the values were obtained:
[1] = system: normal human lung fibroblasts (NHLF); test: mRNA quantification by qPCR in fibrin remodeling assay; format: cell-based
Description: RNA extraction and qPCR: Cells from 12 wells at the indicated time points were pooled together per condition and lysed with 350 μl of RLT lysis buffer. RNA was extracted using a RNeasy Mini Kit (Qiagen, #74104) and was performed according to the manufacturer's instructions. RNA sample concentration was measured using a NanoDrop OneC Spectrophotometer (Thermo Fisher Scientific). A High-Capacity RNA-to-cDNA Kit (Applied Biosystems, #4387406) was used for reverse transcription; 400 ng of RNA for each sample was mixed with 10 μl primer, 1 μl reverse transcriptase enzyme and nuclease-free water to bring the final reaction volume to 20 μl. The reaction was performed for 60 minutes at 37° C., followed by 5 minutes at 95° C. using a Veriti Thermal Cycler (Applied Biosystems). qPCR was performed using a QuantStudio 3 Real-Time PCR System (Applied Biosystems). Each reaction consisted of 1 μl cDNA, 10 μl TaqMan Fast advanced master mix (Applied Biosystems, #4444556), 1 μl primer, and 6 μl nuclease-free water. TaqMan primers (Applied Biosystems) for smooth muscle actin (ACTA2, Hs00426835_g1), plasminogen activator (PLAT, Hs00263492_m1), Plasminogen activator inhibitor-1 (SERPINE1, Hs00167155_m1), collagen type I (COL1A1, Hs00164004_m1), plasminogen activator (PLAU, Hs01547054_m1), and Ki67 (MKI67, Hs01032443_m1) were utilized. The QuantStudio 3 was programmed with a 2-minute hold at 95° C., followed by 40 cycles of 95° C. for 1 second and 60° C. for 20 seconds. Each sample was run with biological triplicates. The relative gene expression was calculated using the […], with glyceraldehyde-3-phosphate dehydrogenase as the housekeeping gene (GAPDH, Hs02786624_g1). Fold changes were normalized with respect to the time zero timepoint with no TGF-β1 stimulation and are reported as the mean with the error bars representing the minimum and maximum values.

[2] = system: NHLF cells and diseased IPF cells (primary human lung fibroblasts) in fibrin scaffold; test: Microscale cell-mediated fibrinolysis assay (ATPS-printed fibroblast-laden fibrin scaffolds, brightfield pixel intensity); format: cell-based; settings: NHLF cells
Description: A stock solution of DEX (20% w/w dextran T500; Sigma) was prepared in phosphate buffered saline (PBS) on a rocker overnight. A stock solution of PEG (6% w/w, 35 k MW; Sigma) was prepared in fully supplemented culture media with 10% deionized water to balance osmolality. Both stock solutions were passed through a 0.22 um sterilizing syringe filter before storage. PEG working solutions were stored for up to 2 weeks at 4° C. Thrombin (Human Alpha Thrombin; Enzyme Research Labs) was also added to the PEG solution at a concentration of 0.1 U/mL immediately preceding experiments. Fibrinogen-DEX solutions were prepared by diluting fibrinogen stock solution (human fibrinogen 3; Enzyme Research Labs) to a final concentration of 4 mg/mL in a sterile solution of 4% 10×DMEM, 15% DEX stock solution (to a final concentration of 3% dextran), and 50% cell suspension in growth media. For all experiments excluding cell concentration evaluation, the cell suspension was diluted for 1000 cells per microliter in the final fibrinogen-DEX solution.
Normal human lung fibroblasts (NHLF lot #0000580583; […] Cells were passaged at 80-90% confluence and were sub-cultured in 1:3 ratios by trypsinization. When at the desired confluence, cells were washed with PBS and 0.05% trypsin solution was added to the flask. Cells were incubated for 2 min, diluted with fibroblast growth media, and then harvested and centrifuged (200× g, 5 min) in a conical tube. The supernatant was aspirated and the cell pellet was re-suspended in serum-free culture media. When used in fibrin degradation experiments, cells were re-suspended at 2× the final desired concentration (1000 cells/ul unless otherwise indicated). All experiments were conducted with cells at or below passage 12. In all experiments, media was changed every 48 hours and any media additives (plasminogen, TGF-β1, drugs, etc.) were included.
Working solutions of PEG with 0.1 U/mL of thrombin were warmed to 37° C. and pipetted into a 96-well plate. For production of droplets, fibrinogen-DEX solutions with cell suspension were maintained at 37° C. and pipetted directly into the PEG-thrombin media using either a manual pipette or a semi-automated 96-channel pipette (Viaflo-96; Integra). All assays utilized a volume of 1 μl unless otherwise noted. Following dispensing of the DEX phase, the plates were placed in an incubator at 37° C. for 30 min to allow the thrombin to enzymatically crosslink the fibrinogen into a fibrin matrix (FIG. 1A). The PEG-enriched media was then washed four times by removing, then replacing half of the media with PEG-free media. When applicable, the final media addition was supplemented with stimuli as detailed in Example 5 below. For the duration of each experiment, assay plates were imaged every 2 hours at 4× with an automated cell culture monitoring system (Incucyte S3; Essen Biosystems). After one day of culture, plasminogen (50 μg/mL) (Human Glu-Plasminogen; Enzyme Research Labs) was added as a 10× concentrated solution to each well in order to initiate assay degradation (FIG. 1B), unless otherwise noted for specific conditions. Fresh plasminogen was included with each subsequent media addition. Positive controls with active plasmin (1 U/ml) (Human Plasmin; Enzyme Research Labs) and negative controls without plasminogen were included in each experiment. As cells activated plasminogen, the fibrin scaffold progressively degraded as illustrated in FIG. 1C.
After each experiment, brightfield images for every time point were downloaded in jpeg format from the automated cell culture monitoring system. Python's OpenCV library was implemented for the masking approach illustrated in FIG. 2A. First, a threshold was set at 50% of the maximum intensity (128 for 8-bit integer pixel values) in order to isolate the darker pixels of semi-opaque fibrin hydrogel from the background of the image. A closing morphological filter with a 25×25 kernel was then applied to each mask in order to remove noise. […]

[3] = TGF-β1 stimulation compared to the control time series
[4] = higher concentrations of TGF-β1

“TGF-β1: Human Recombinant TGF-β1 (Peprotech), pro-fibrotic, anti-fibrinolytic stimulus” was tested, and the “COL1A1 mRNA expression” value ([1]; TGF-β1 dose) was “dose-dependent increase in COL1A1”, the “ACTA2 (aSMA) mRNA expression” value ([1]; TGF-β1 dose and time course) was “increased expression for the highest concentration of TGF-β1” and the “SERPENE1 (PAI-1) mRNA expression” value ([1]; TGF-β1 dose and time course) was “significant time-dependent and dose-dependent increases in expression”. For the same substance, the “tPA (PLAT) mRNA expression” value [1, 3] was “relative downregulation”, the “uPA (PLAU) mRNA expression” value [1, 3] was “relative upregulation” and the “MKI67 mRNA expression (proliferation marker)” value [1, 4] was “significantly upregulated”. The “maximum slope of fibrin degradation” value [2, 4] was “no significant changes in slope” and the “50% degradation time / delay before fibrinolysis” value ([2]; various concentrations of TGF-β1) was “longer time delays before fibrinolysis”.
